The source of these data is ChEMBL document CHEMBL1157550, “Incorporation of fluorinated phenylalanine generates highly specific inhibitor of proteasome's chymotrypsin-like sites” (J Med Chem, 2010).

For experiment [1], the target named is T1, Proteasome Macropain subunit MB1 (Homo sapiens) (UniProt P28074).
T1 sequence (whole entry): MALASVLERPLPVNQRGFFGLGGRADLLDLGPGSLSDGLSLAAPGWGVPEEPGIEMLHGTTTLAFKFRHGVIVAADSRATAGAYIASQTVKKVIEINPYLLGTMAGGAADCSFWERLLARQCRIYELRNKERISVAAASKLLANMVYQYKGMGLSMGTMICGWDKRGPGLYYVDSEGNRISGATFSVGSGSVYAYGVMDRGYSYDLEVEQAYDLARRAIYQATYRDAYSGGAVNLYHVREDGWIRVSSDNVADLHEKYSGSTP
The experiment is described as follows: Displacement of fluorescent labeled MV151 from 26S proteasome beta 5 in human HEK293 cell lysate assessed as residual activity at 100 uM after 1 hr by SDS-PAGE. The format is cell-free.

Experiment [2] has as its target T2, Proteasome component C5 (Homo sapiens) (UniProt P20618).
T2 sequence (whole entry): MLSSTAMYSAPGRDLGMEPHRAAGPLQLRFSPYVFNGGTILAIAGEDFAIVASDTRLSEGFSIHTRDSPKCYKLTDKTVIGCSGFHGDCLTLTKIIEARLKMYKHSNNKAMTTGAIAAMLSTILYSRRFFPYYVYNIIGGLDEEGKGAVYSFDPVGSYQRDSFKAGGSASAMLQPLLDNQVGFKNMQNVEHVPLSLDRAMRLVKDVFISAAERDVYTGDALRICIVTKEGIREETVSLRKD
Put plainly: Displacement of fluorescent labeled MV151 from 26S proteasome beta 1 in human HEK293 cell lysate assessed as residual activity at 1 uM after 1 hr by SDS-PAGE. The format is cell-free.

The target of experiment [3] is T2, Proteasome component C5 (Homo sapiens). Put plainly: Displacement of fluorescent labeled MV151 from 26S proteasome beta 1 in human HEK293 cell lysate assessed as residual activity at 100 uM after 1 hr by SDS-PAGE. Format: cell-free.
Experiment [4] has as its target Proteasome Macropain subunit (Homo sapiens) (UniProt P49721). Put plainly: Displacement of fluorescent labeled MV151 from 26S proteasome beta 2 in human HEK293 cell lysate assessed as residual activity at 1 uM after 1 hr by SDS-PAGE. Format: cell-free.
Experiment [5] shares this target. The experiment is described as follows: Displacement of fluorescent labeled MV151 from 26S proteasome beta 2 in human HEK293 cell lysate assessed as residual activity at 100 uM after 1 hr by SDS-PAGE. Format: cell-free.
The target in experiment [6] is T1, Proteasome Macropain subunit MB1 (Homo sapiens). The experiment is described as follows: Displacement of fluorescent labeled MV151 from 26S proteasome beta 5 in human HEK293 cell lysate assessed as residual activity at 1 uM after 1 hr by SDS-PAGE. The format is cell-free.
In experiment [7] the target is T2, Proteasome component C5 (Homo sapiens). Put plainly: Inhibition of 26S proteasome beta 1 in human HEK293 cell lysate assessed as residual activity at 13.5 uM after 1 hr. The format is cell-free.
For experiment [8] the target is unchanged. Put plainly: (§1) Inhibition of 26S proteasome beta 1 in human HEK293 cell lysate assessed as residual activity at […] after 1 hr. The format is cell-free.
For experiment [9] the target is unchanged. The experiment is described as follows: Inhibition of 26S proteasome beta 1 in human HEK293 cell lysate assessed as residual activity at 1.5 uM after 1 hr. The format is cell-free.
Experiment [10] has the same target. The experiment is described as follows: Inhibition of 26S proteasome beta 1 in human HEK293 cell lysate assessed as residual activity at 0.5 uM after 1 hr. The format is cell-free.
For experiment [11] the target is unchanged. Put plainly: Inhibition of 26S proteasome beta 1 in human HEK293 cell lysate assessed as residual activity at 0.167 uM after 1 hr. Format: cell-free.
Experiment [12] shares this target. Described as §1. Format: cell-free. The source holds these as a separate data set.
The target is the same in experiment [13]. The experiment is described as follows: Inhibition of 26S proteasome beta 1 in human HEK293 cell lysate assessed as residual activity at 0.019 uM after 1 hr. The format is cell-free.
For experiment [14] the target is unchanged. Put plainly: Inhibition of 26S proteasome beta 1 in human HEK293 cell lysate assessed as residual activity at 0.002 uM after 1 hr. Format: cell-free.
The target is the same in experiment [15]. The experiment is described as follows: Inhibition of 26S proteasome beta 1 in human HEK293 cell lysate assessed as residual activity at 0.001 uM after 1 hr. The format is cell-free.
In experiment [16] the target is Proteasome Macropain subunit (Homo sapiens) (UniProt P49721). The experiment is described as follows: (§2) Inhibition of 26S proteasome beta 2 in human HEK293 cell lysate assessed as residual activity at […] after 1 hr. Format: cell-free.
For experiment [17] the target is unchanged. Put plainly: Inhibition of 26S proteasome beta 2 in human HEK293 cell lysate assessed as residual activity at 1.5 uM after 1 hr. The format is cell-free.
Experiment [18] has the same target. The experiment is described as follows: Inhibition of 26S proteasome beta 2 in human HEK293 cell lysate assessed as residual activity at 0.5 uM after 1 hr. The format is cell-free.
For experiment [19] the target is unchanged. Put plainly: Inhibition of 26S proteasome beta 2 in human HEK293 cell lysate assessed as residual activity at 0.167 uM after 1 hr. Format: cell-free.
Experiment [20] has the same target. Described as §2. The format is cell-free. The source holds these as a separate data set.
For experiment [21] the target is unchanged. Put plainly: Inhibition of 26S proteasome beta 2 in human HEK293 cell lysate assessed as residual activity at 0.019 uM after 1 hr. Format: cell-free.
Experiment [22] has the same target. Put plainly: Inhibition of 26S proteasome beta 2 in human HEK293 cell lysate assessed as residual activity at 0.006 uM after 1 hr. Format: cell-free.
The target is the same in experiment [23]. Put plainly: Inhibition of 26S proteasome beta 2 in human HEK293 cell lysate assessed as residual activity at 0.002 uM after 1 hr. The format is cell-free.
Experiment [24] has the same target. The experiment is described as follows: Inhibition of 26S proteasome beta 2 in human HEK293 cell lysate assessed as residual activity at 0.001 uM after 1 hr. The format is cell-free.
Experiment [25] deals with T2, Proteasome component C5 (Homo sapiens). The experiment is described as follows: Inhibition of 26S proteasome beta 1 in human HEK293 cell lysate assessed as residual activity at 0.006 uM after 1 hr. Format: cell-free.
For experiment [26], the target named is Proteasome Macropain subunit (Homo sapiens) (UniProt P49721). Put plainly: Inhibition of 26S proteasome beta 2 in human HEK293 cell lysate assessed as residual activity at 13.5 uM after 1 hr. Format: cell-free.
Experiment [27] has as its target Proteasome subunit beta type-5 (Homo sapiens) (UniProt P28074). The experiment is described as follows: Inhibition of 26S proteasome beta 5 in human HEK293 cell lysate assessed as residual activity at […] after 1 hr.
Experiment [28] has the same target. The description is as above. The source holds these as a separate data set.
Experiment [29] shares this target. The experiment is described as follows: Inhibition of 26S proteasome beta 5 in human HEK293 cell lysate assessed as residual activity at 1.5 uM after 1 hr.
Experiment [30] shares this target. Put plainly: Inhibition of 26S proteasome beta 5 in human HEK293 cell lysate assessed as residual activity at 0.5 uM after 1 hr.
For experiment [31] the target is unchanged. The experiment is described as follows: Inhibition of 26S proteasome beta 5 in human HEK293 cell lysate assessed as residual activity at 13.5 uM after 1 hr.
Experiment [32] shares this target. Put plainly: Inhibition of 26S proteasome beta 5 in human HEK293 cell lysate assessed as residual activity at 0.167 uM after 1 hr.
Experiment [33] concerns the target T2, Proteasome component C5 (Homo sapiens). The experiment is described as follows: Displacement of fluorescent labeled MV151 from 26S proteasome beta 1 in human HEK293 cell lysate assessed as disappearance of band at 0.1 to 1 uM after 1 hr by SDS-PAGE. Format: cell-free.
Experiment [34] deals with T1, Proteasome Macropain subunit MB1 (Homo sapiens). The experiment is described as follows: Displacement of fluorescent labeled MV151 from 26S proteasome beta 5 in human HEK293 cell lysate assessed as disappearance of band at 0.1 to 1 uM after 1 hr by SDS-PAGE. The format is cell-free.

Active and inactive are the calls of the source. The rule behind the calls is not given here.

Proteasome Macropain subunit (Homo sapiens), sequence (P49721 whole entry): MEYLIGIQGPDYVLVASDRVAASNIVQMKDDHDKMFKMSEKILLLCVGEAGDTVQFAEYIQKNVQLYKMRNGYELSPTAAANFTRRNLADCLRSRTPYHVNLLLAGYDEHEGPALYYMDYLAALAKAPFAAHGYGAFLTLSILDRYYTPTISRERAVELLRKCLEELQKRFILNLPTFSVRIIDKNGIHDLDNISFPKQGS

Turning to `CC(C)C[C@H](NC(=O)[C@H](Cc1cc(C(F)(F)F)cc(C(F)(F)F)c1)NC(=O)[C@H](Cc1cc(C(F)(F)F)cc(C(F)(F)F)c1)NC(=O)[C@H](Cc1ccccc1)N=[N+]=[N-])C(=O)[C@@]1(C)CO1`, the Activity was found to be 31% in experiment [1]; 192% in experiment [2]; 100% in [3]; 48% in experiment [4]; 149% in experiment [5]; 79% in [6].

`CC(C)C[C@H](NC(=O)[C@H](Cc1c(F)c(F)c(F)c(F)c1F)NC(=O)[C@H](Cc1ccccc1)NC(=O)[C@H](Cc1ccccc1)N=[N+]=[N-])C(=O)[C@@]1(C)CO1`: the Activity in experiment [7] came out at 71.2%; in experiment [8] it was 77.6%; in experiment [9], 90.1%; in [10] it was 98.3%; in experiment [11], 99.5%; in experiment [12], 105%. The Activity was 104% in [13]; 106% in experiment [14]; 100% in experiment [15]; 71% in experiment [16]; 84.2% in [17]; 95.6% in [18]. The Activity in experiment [19] stood at 112%; in [20], 120%; in experiment [21] it was 109%; in experiment [22] it was 90.7%; in experiment [23], 106%; in experiment [24], 105%. The Activity was 77.3% in [25]; 54.1% in [26]; 248% in [2]; 15.4% in experiment [3]; 116% in [5]; 11.6% in [6].

Turning to `CC(C)C[C@H](NC(=O)[C@H](Cc1ccccc1)NC(=O)[C@H](Cc1c(F)c(F)c(F)c(F)c1F)NC(=O)[C@H](Cc1ccccc1)N=[N+]=[N-])C(=O)[C@@]1(C)CO1`, the Activity in experiment [1] stood at 0.83%; in experiment [7] it was 73.1%; in experiment [8], 102%; in experiment [9], 115%; in experiment [10] it was 103%; in [11], 89.4%. The Activity was determined as 83.2% in experiment [12]; 119% in [16]; 127% in experiment [17]; 118% in experiment [18]; 89.9% in experiment [19]; 98.7% in experiment [20]. Also, the Activity in [26] is 98.4%; in [2] it was 82.1%; in [3] it was 87.6%; in experiment [4] it was 2.9%; in experiment [5], 56.9%; in experiment [6], 89.1%. For the same molecule, the Activity is 8% in experiment [27]; 56.2% in [28]; 14.7% in experiment [29]; 29.7% in [30]; 5.8% in [31]; 48.9% in [32].

For the molecule `CC(C)C[C@H](NC(=O)[C@H](Cc1c(F)c(F)c(F)c(F)c1F)NC(=O)c1cnccn1)B1OC2C[C@@H]3C[C@@H](C3(C)C)[C@]2(C)O1` (stereo partly drawn), the Activity in experiment [7] is 1.3%; in [8], 3.1%; in experiment [9], 12%; in [10], 40.4%; in [11], 68.7%; in [12], 92.1%. Further, the Activity in [13] worked out at 99.5%; in [14], 96.1%; in [15] it was 110%; in experiment [16], 118%; in experiment [17], 135%; in [18], 118%. The Activity in experiment [19] was found to be 121%; in experiment [20] it was 118%; in [21] it was 102%; in experiment [22] it was 104%; in experiment [23], 99%; in experiment [24], 110%. The Activity was determined as 97.5% in experiment [25] and 110% in experiment [26]. The result in experiment [33] and in experiment [34] was Active.

As for `CC(C)C[C@H](NC(=O)[C@H](Cc1ccccc1)NC(=O)c1cnccn1)B1OC2C[C@@H]3C[C@@H](C3(C)C)[C@]2(C)O1` (stereo partly drawn), the result in [33] and in experiment [34] was Active.

Consider `CC(C)C[C@H](NC(=O)[C@H](Cc1ccccc1)NC(=O)[C@H](Cc1ccccc1)NC(=O)[C@H](Cc1ccccc1)N=[N+]=[N-])C(=O)[C@@]1(C)CO1`, for which the Activity was found to be 58.3% in [7]; 54% in experiment [8]; 69.9% in [9]; 58.4% in [10]; 84.9% in [11]; 104% in experiment [12]. For the same molecule, the Activity in [13] was 76.8%; in [14] it was 100%; in experiment [15] it was 105%; in experiment [16], 26.1%; in [17], 37%; in [18], 65.8%. For the same molecule, the Activity was 89% in experiment [19]; 115% in experiment [20]; 82% in experiment [21]; 105% in experiment [22]; 109% in [23]; 106% in experiment [24]. Also, the Activity in experiment [25] came to 96.5%; in experiment [26] it was 10.6%; in [2], 139%; in experiment [3], 7.2%; in experiment [5] it was 133%; in experiment [6], 4.6%.

With `CC(C)C[C@H](NC(=O)[C@H](Cc1c(F)c(F)c(F)c(F)c1F)NC(=O)[C@H](Cc1c(F)c(F)c(F)c(F)c1F)NC(=O)[C@H](Cc1ccccc1)N=[N+]=[N-])C(=O)[C@@]1(C)CO1`, the Activity in experiment [1] worked out at 7.4%; in [2], 148%; in experiment [3] it was 115%; in experiment [4], 20.4%; in experiment [5], 43.2%; in [6], 94.9%.
